Data on five compounds can be found in PubChem BioAssay (NCI).

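1) Cells in 96-well plates. 2) Compound, 48 h, 5 concentrations. 3) Linear interpolation between surrounding doses. 4) Unreached endpoint = highest concentration. The concentration for 50% growth inhibition is given as GI50. Definition used: TGI = concentration required for complete inhibition of growth.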

Some test systems named below: A498 renal; HL-60(TB) leukemia; SK-MEL-5 melanoma; ACHN renal; CAKI-1 renal; DU-145 prostate; HCT-15 colon; MDA-MB-435; NCI-H460 lung; OVCAR-3 ovarian; OVCAR-4 ovarian; OVCAR-5 ovarian; SW-620 colon; K-562 leukemia; 786-0 renal; A549 NSCLC; CCRF-CEM leukemia; COLO 205 colon; EKVX NSCLC; HCC-2998 colon; HCT-116 colon; HOP-62 NSCLC; HS 578T breast; HT29 colon; IGROV1 ovarian; KM12 colon; M14 melanoma; MALME-3M melanoma; MCF7 breast; MDA-MB-231 breast; MOLT-4 leukemia; NCI-H226 lung; NCI-H23 lung; NCI-H522 lung; NCI/ADR-RES ovarian; OVCAR-8 ovarian; PC-3 prostate; RPMI-8226 leukemia; RXF 393 renal; SF-268 CNS; SF-295 CNS; SF-539 CNS; SK-MEL-2 melanoma; SK-MEL-28 melanoma; SK-OV-3 ovarian; SN12C renal; SNB-19 CNS; SNB-75 CNS; SR leukemia; T-47D breast; TK-10 renal; U251 CNS; UACC-257 melanoma; UACC-62 melanoma; UO-31 renal; HOP-92 NSCLC.

What all share (experiment): growth of human tumour cells (NCI), 48 h

Take `Cc1cn(-c2cc(F)cc(NC(=O)c3ccc(C)c(Nc4nccc(-c5cccnc5)n4)c3)c2)cn1`: the GI50 with A498 renal, with HL-60(TB) leukemia and with SK-MEL-5 melanoma was greater than 100 µM in each case. In addition, the TGI with A498 renal, in the assay with HL-60(TB) leukemia and in the assay on SK-MEL-5 melanoma was greater than 100 µM in each case.
As to `C=C(CNCCc1ccc(O)cc1)[C@@H]1CC[C@]2(COC3CCCCO3)CC[C@]3(C)[C@H](CC[C@@H]4[C@@]5(C)CCC(NCCO)C(C)(C)[C@@H]5CC[C@]43C)[C@@H]12` (stereo not given in full), the GI50 in the assay on A498 renal was 1.33 µM; in the assay with ACHN renal it was 1.64 µM; in the assay with CAKI-1 renal, 1.52 µM; in the assay with DU-145 prostate, 1.25 µM; in the assay with HCT-15 colon it was 0.39 µM; in the assay with MDA-MB-435 it was 1.35 µM. Further, the GI50 with NCI-H460 lung was 0.339 µM; with OVCAR-3 ovarian it was 1.28 µM; in the assay with OVCAR-4 ovarian, 1.39 µM; with OVCAR-5 ovarian, 1.67 µM; in the assay with SW-620 colon, 0.211 µM. Further, the TGI in the assay with A498 renal is 2.72 µM; in the assay with ACHN renal, 3.04 µM; with CAKI-1 renal, 2.86 µM; in the assay with DU-145 prostate, 2.58 µM; in the assay on HCT-15 colon it was 1.49 µM; with MDA-MB-435 it was 2.65 µM. Also, the TGI came out at 1.07 µM with NCI-H460 lung; 2.77 µM with OVCAR-3 ovarian; 2.82 µM in the assay with OVCAR-4 ovarian; 3.13 µM with OVCAR-5 ovarian; 0.453 µM in the assay on SW-620 colon.
Turning to `CNc1ccc(C(=O)CC(O)CCC(C)C2OC(=O)CC(O)CC(=O)CC(O)CC(O)CC(O)CC(O)CC3(O)CC(O)C(C(=O)NCCN4CCCCC4)C(CC(OC4OC(C)C(O)C(N)C4O)/C=C/C=C/C=C/C=C\C=C/C=C/C=C/C2C)O3)cc1` (stereo not given), the TGI with HL-60(TB) leukemia and with K-562 leukemia was greater than 100 µM in each case.
Turning to `C=Cc1ccccc1C1(O)C=CC(OC)(OC)C=C1`, the TGI is 16.4 µM in the assay with 786-0 renal; 41 µM in the assay with A498 renal; 36.9 µM in the assay on A549 NSCLC; 39 µM with ACHN renal; 18.4 µM in the assay on CAKI-1 renal; 8.46 µM with CCRF-CEM leukemia. Besides, the TGI was 25.9 µM with COLO 205 colon; 68.8 µM in the assay with DU-145 prostate; 50.5 µM with EKVX NSCLC; 33.4 µM in the assay with HCC-2998 colon; 11.7 µM in the assay on HCT-116 colon; 13.1 µM in the assay on HCT-15 colon. For the same compound, the TGI is 6.38 µM in the assay on HL-60(TB) leukemia; 19.5 µM with HOP-62 NSCLC; greater than 100 µM with HS 578T breast; 11.7 µM in the assay with HT29 colon; 27 µM with IGROV1 ovarian; greater than 100 µM with K-562 leukemia. Further, the TGI in the assay on KM12 colon turned out to be 19.4 µM; in the assay on M14 melanoma, 18.5 µM; in the assay on MALME-3M melanoma, 27.8 µM; in the assay on MCF7 breast it was 13.3 µM; in the assay with MDA-MB-231 breast, 24.8 µM; in the assay on MDA-MB-435, 14 µM. For the same compound, the TGI came to 10.6 µM in the assay on MOLT-4 leukemia; 80.9 µM with NCI-H226 lung; 16.2 µM in the assay with NCI-H23 lung; 21.9 µM with NCI-H460 lung; 23.9 µM in the assay with NCI-H522 lung; 29.4 µM in the assay with NCI/ADR-RES ovarian. For the same compound, the TGI with OVCAR-3 ovarian came to 7.53 µM; in the assay with OVCAR-4 ovarian, 37.2 µM; with OVCAR-5 ovarian, 20.2 µM; in the assay on OVCAR-8 ovarian, 3.65 µM; in the assay on PC-3 prostate, 29.1 µM; in the assay on RPMI-8226 leukemia, 45.2 µM. Besides, the TGI with RXF 393 renal was determined as 14.8 µM; in the assay with SF-268 CNS, 33.9 µM; with SF-295 CNS it was 32.5 µM; in the assay with SF-539 CNS, 6.4 µM; with SK-MEL-2 melanoma, 37.9 µM; with SK-MEL-28 melanoma, 20.8 µM. Moreover, the TGI was 26.9 µM in the assay on SK-MEL-5 melanoma; 29.3 µM in the assay with SK-OV-3 ovarian; 24.4 µM in the assay with SN12C renal; 30.8 µM in the assay on SNB-19 CNS; 38.7 µM in the assay on SNB-75 CNS; 7.02 µM in the assay with SR leukemia. For the same compound, the TGI was 11.5 µM in the assay with SW-620 colon; greater than 100 µM in the assay with T-47D breast; 10.7 µM in the assay with TK-10 renal; 12.7 µM in the assay on U251 CNS; 24.1 µM in the assay with UACC-257 melanoma; 17.6 µM in the assay with UACC-62 melanoma. This compound also displayed a TGI with UO-31 renal of 19.8 µM.
On to `OC(c1cc2ccc(C(F)(F)F)cc2c2cc(C(F)(F)F)ccc12)C1CCCCN1` (stereo not given), for which the TGI with 786-0 renal is 2.98 µM; with A549 NSCLC, 3.26 µM; in the assay with ACHN renal, 2.62 µM; in the assay with CAKI-1 renal, 3.13 µM; with COLO 205 colon, 3.05 µM; in the assay with DU-145 prostate it was 3.21 µM. Besides, the TGI with HCC-2998 colon was 2.62 µM; in the assay with HCT-116 colon it was 2.8 µM; in the assay with HL-60(TB) leukemia, greater than 100 µM; in the assay on HOP-92 NSCLC it was 3.19 µM; in the assay with HT29 colon, 3.4 µM; with MALME-3M melanoma, 1.5 µM. The TGI turned out to be 3.2 µM with MDA-MB-231 breast; 3.16 µM in the assay on NCI-H522 lung; 3.18 µM in the assay on OVCAR-5 ovarian; 3.74 µM with OVCAR-8 ovarian; 2.92 µM with PC-3 prostate; 3.41 µM with SF-295 CNS. Also, the TGI with SK-MEL-28 melanoma was 3.36 µM; in the assay on SK-MEL-5 melanoma, 2.89 µM; with SK-OV-3 ovarian it was 3.82 µM; with SN12C renal, 3.26 µM; in the assay on SNB-75 CNS, 2.57 µM; with SR leukemia, 4.99 µM. Besides, the TGI in the assay on SW-620 colon came to 2.84 µM; in the assay with TK-10 renal it was 3.71 µM; with UACC-62 melanoma, 3.49 µM; with UO-31 renal, 2.71 µM. Moreover, the GI50 with OVCAR-8 ovarian is 1.86 µM; in the assay with SF-295 CNS, 1.83 µM.
